Data: patent publication US4973592A, “1,3-diazocycloalkenes as muscarinic receptor blocking agents” (Istituto de Angeli, priority 1987, dated 1990)
pKd: −log10 of the molar value. Where a name gives a salt, the structure may show the parent alone. Read-outs that look alike come from different tables or passages of the source.

Columns and labels:
[1] = target: T1, muscarinic receptors of the cerebral cortex (Rattus norvegicus, UniProt P08482); experiment: biochemical; design: species or system male CD-COOBBS rats; conditions: read-out: Antimuscarinic effect. Dissociation constants (KD) for ^3 H-pirenzepine binding
T1 sequence (P08482 1-460): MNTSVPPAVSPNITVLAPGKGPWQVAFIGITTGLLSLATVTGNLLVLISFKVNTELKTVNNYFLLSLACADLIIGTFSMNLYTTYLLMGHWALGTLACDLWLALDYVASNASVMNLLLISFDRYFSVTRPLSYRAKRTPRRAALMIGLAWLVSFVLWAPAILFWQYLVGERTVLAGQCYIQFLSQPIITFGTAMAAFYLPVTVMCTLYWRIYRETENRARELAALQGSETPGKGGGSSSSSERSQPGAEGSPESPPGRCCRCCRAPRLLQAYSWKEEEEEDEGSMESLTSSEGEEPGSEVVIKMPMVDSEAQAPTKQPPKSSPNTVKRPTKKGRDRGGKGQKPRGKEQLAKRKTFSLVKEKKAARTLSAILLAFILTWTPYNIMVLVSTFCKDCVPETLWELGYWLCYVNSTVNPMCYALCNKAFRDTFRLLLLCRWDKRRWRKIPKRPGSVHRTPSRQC

[2] = target: T2, isolated guinea pig ileum (bethanechol induced contractions) (Cavia porcellus, UniProt H0W1Z3); experiment: antispasmodic activity on isolated guinea pig ileum with bethanechol as spasmogen; design: species or system guinea pig (Dunkin Hartley); conditions: cumulative bethanechol 0.3-30 μM, antagonist 60 min before, Tyrode solution, 37° C.; KB from dose-ratio; read-out: Antispasmodic activity. Dissociation constants (KB) for bethanechol induced contractions in the guinea pig ileum
T2 construct: a 2 cm piece of terminal ileum was rapidly excised; from tissue; host or cells: guinea pig terminal ileum (Dunkin Hartley)

[3] = competition against 0.5 nM ^3 H-pirenzepine, rat cerebral cortex homogenate, 45 min at 30° C., pH 7.4, corrected for radioligand occupancy shift

T2 sequence (H0W1Z3 1-590): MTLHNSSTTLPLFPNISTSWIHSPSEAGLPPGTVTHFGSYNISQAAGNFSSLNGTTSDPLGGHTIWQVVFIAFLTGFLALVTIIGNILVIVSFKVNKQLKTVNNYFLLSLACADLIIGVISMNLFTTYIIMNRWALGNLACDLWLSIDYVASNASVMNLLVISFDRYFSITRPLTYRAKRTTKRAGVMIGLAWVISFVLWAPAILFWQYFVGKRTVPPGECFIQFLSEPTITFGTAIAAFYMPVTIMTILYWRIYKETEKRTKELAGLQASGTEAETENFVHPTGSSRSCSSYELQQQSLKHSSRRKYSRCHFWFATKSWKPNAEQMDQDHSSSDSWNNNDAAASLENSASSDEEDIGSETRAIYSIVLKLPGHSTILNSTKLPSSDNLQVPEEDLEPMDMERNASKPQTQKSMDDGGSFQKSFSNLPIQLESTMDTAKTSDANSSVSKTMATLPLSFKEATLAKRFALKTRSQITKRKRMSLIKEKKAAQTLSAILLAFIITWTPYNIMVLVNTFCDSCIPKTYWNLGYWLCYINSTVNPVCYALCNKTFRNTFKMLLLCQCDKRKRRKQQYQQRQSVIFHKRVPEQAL

SMILES | pKd [1, 3] | Kb [2] [nM] | pKd [1]
CC1=NCCN1CCC(O)(c1ccccc1)C1CCCCC1 (stereo not drawn) [Compound 2, 1-(3-Phenyl-3-cyclohexyl-3-hydroxy)propyl-2-methyl-2-imidazoline hydrochloride] | 8.52 | 1.7 | 
CC1=NCCN1CCCC(O)(c1ccccc1)C1CCCCC1 (stereo not drawn) [Compound 21, 1-(4-Phenyl-4-cyclohexyl-4-hydroxy)butyl-2-methyl-2-imidazoline hydrochloride] | 8.13 | 3.4 | 
NC1=NCC(OC(=O)C2(C3CCCCC3)CCCCC2)CN1 (stereo not drawn) [Compound 15, 2-Amino-1,4,5,6-tetrahydropyrimidin-5-yl 1-cyclohexylcyclohexane-1-carboxylate formate] |  | 0.46 | 8.57

Further lines, results first:

pKd [1, 3] | Kb [2] [nM] | pKd [1] | SMILES
8.30 | 1.5 |  | OC(CCCN1C=NCCC1)(c1ccccc1)C1CCCCC1 (stereo not drawn) [Compound 22, 1-(4-Phenyl-4-cyclohexyl-4-hydroxy)butyl-1,4,5,6-tetrahydropyrimidine hydrochloride]
7.85 | 6.2 |  | OC(CCN1C=NCC1)(c1ccccc1)C1CCCCC1 (stereo not drawn) [Compound 23, 1-(3-phenyl-3-cyclohexyl-3-hydroxy)propyl-2-imidazoline hydrochloride]
8.38 | 1 |  | OC(CCN1C=NCCC1)(c1ccccc1)C1CCCCC1 (stereo not drawn) [Compound 1, 1-(3-Phenyl-3-cyclohexyl-3-hydroxy)propyl-1,4,5,6-tetrahydropyrimidine hydrochloride]
